Where “and” joins values, the source holds several entries; their conditions need not be identical. Equal entries are not always repeated. Entries after “also recorded” stand apart in the source; their conditions may differ.
Experiments:
[1] = tested on: mouse aortic endothelial cells (MAECs); type: cell-based
[2] = tested on: bovine lung microvascular endothelial cells (BLMVECs)
Procedure: Bovine Lung Microvasular Endothelial Cells (BLMVECs) Culture The BLMVECs used in this study were obtained from the VEC Technologies, Inc, New York. BLMVECs cultured in MEM were maintained in 75 mm flasks at 37° C. in a humidified atmosphere of 5% CO2/95% air and grown to contact-inhibited monolayers with a typical cobblestone morphology [157]. Cells from each primary flask were detached with 0.05% trypsin, resuspended in fresh medium, and cultured in complete medium to 70% confluency for other studies. Cells from passages 10-14 were used in all the experiments.
Preparation of Particulates for Cell Culture Studies Microcrystalline particulates of LiNc-BuO were suspended in complete MEM medium (10 mg/0.5 ml) and sonicated for 30 sec pulse for ten times on ice with a probe sonicator at a setting of 5. The particulate suspension was cooled for 1 min between two successive 30 sec bursts of sonication. At the end of sonication, the suspension was placed on ice for exactly 2 min to allow the heavier particulates to settle down at the bottom of the tube and the supernatant liquid was transferred to a separate tube for intracellular delivery. The solution contained fine particulates of LiNc-BuO with a particulate size <2 μm. All the preparations were carried out under sterile conditions.
Internalization of Particulates into Endothelial Cells BLMVECs, at 70% confluence (10^4 cells/35 mm dish), in 1 ml complete MEM were treated with 50 μl of LiNc-BuO particulate suspension that contained particulates of <2 μm prepared by procedure as described under Materials and Methods. The cells were maintained at 37° C. under 95% air/5% CO2 environment. At 6 h intervals, for 72 h, cells were examined under light microscope for internalization of LiNc-BuO particulates. […] The cell pellet was resuspended in MEM containing glucose (0.5 g per 500 ml), at a density of 2×10^5 cells/ml and used for EPR analysis. Cells after LiNc-BuO internalization and repeated washings were photographed under an inverted microscope while still adherent to the substratum of the 35 mm dish. Cell viability was assessed by light microscopy and Alamar Blue assay according to the manufacturer's recommendations. Cell separation by trypsinization was avoided to keep the cell morphology and function in tact.
A 20 μL volume of the cell suspension containing 4,000 cells and 10 μM TAM was drawn into a gas-permeable Teflon tube and subjected to EPR spectroscopy as described below. The measurements were also carried out with Menadione (50 μM) and KCN (100 μM).
EPR Measurements The EPR measurements were carried out using a Bruker X-band (9.8 GHz) spectrometer (Bruker Instruments, Karlshrue, Germany) equipped with TM110 cavity. EPR spectral acquisitions were performed using custom-developed data acquisition software (SPEX) that was capable of fully automated data acquisition and processing. Unless otherwise mentioned, the EPR line-widths reported are peak-to-peak widths (.Bpp) of the first derivative spectra.
Simultaneous Measurements of LiNc-BuO and TAM Line-Shapes LiNc-BuO and TAM were used as site specific oximetry probes to measure intra- and extracellular oxygen concentration, respectively. Both LiNc-BuO and TAM give a single-line EPR spectrum, whose amplitude (intensity) and width depend on the amount/concentration of the probe and oxygen, respectively.

[3] = tested on: K56 (an erythroleukemic cell line) and A 431 (an epidermal carcinoma cell line); details: 200 μM; cited from earlier work
[4] = tested on: Human arterial smooth muscle cells (HASMCs)
Procedure: Cultute of Smooth Muscle Cells Human arterial smooth muscle cells (HASMCs) were obtained from Clonetics, San Diego, Calif. at passage 4. Cells were cultured and passed in Ham's medium containing 225 ml of DMEM, 225 ml of F-12 medium, 50 ml of FBS (10%), 5 ml of glutamate and 5 ml of antibiotics in a final volume of 500 ml. Cell cultures were maintained at 37° C. under 95% air/5% CO2 environment in 35 mm dishes. HASMCs up to passage 11 were used in the current study.
Preparation of Particulates for Cell Culture Studies Fine crystals of freshly synthesized LiNc-BuO were suspended in Ham's medium (10 mg/0.5 ml) and sonicated ten times for 30 sec on ice with a probe sonicator at a setting of 5. The particulate mixture was cooled on ice for 1 min between two successive 30 sec burst of sonication. […] The size of the particulates for intracellular delivery was <2 μm as determined by optical microscopy.
Internalization of Particulates into Smooth Muscle Cells HMSMCs, at 70% confluence (10^4 cells/dish), in 1 ml Ham's medium were treated with 50 μl of LiNc-BuO particulate suspension that contained particulates of <2 μm prepared by the procedure as mentioned before. […] Cell viability was assessed by light microscopy and Alamar Blue assay according to the manufacturer's recommendations.

[5] = tested on: gastrocnemius muscle tissue of C3H mice; assay: Long-term stability and oxygen response of particulates implanted in gastrocnemius muscle; type: in vivo; details: versus original unimplanted particulate, through 180 day study
Procedure: Animal Studies Female C3H mice were used in the present work. The mice were supplied through the Frederick Cancer Research Center Animal Production, Frederick, Md. The animals were received at 6 weeks of age and housed five per cage in climate-controlled rooms and allowed food and acidified water ad lib. The animals were on average 50 days old at the time of experimentation and weighed 25±3 g. Experiments were conducted according to the principles outlined in the Guide for the Care and Use of Laboratory Animals prepared by the Institute of Laboratory Animal Resources, National Research Council.
Implantation of LiNc-BuO in Tumor and Gastrocnemius Muscle of Mice Mice were anesthetized with breathing of isoflurane (1.5%)—air mixture delivered through a nose cone. […]
Stability in Tissues In order to evaluate the long-term stability of these particulates in tissues, we implanted the particulates in the gastrocnemius muscle tissue of mice and performed repeated measurements of pO2 in the same animals over a period of time. […] The EPR spectrum of the particulate in the leg was recorded periodically up to 180 days following the implantation of particulate (FIG. 4). […] Mice were periodically sacrificed through the 180 day study period and tissue pO2 values were assessed to verify the registration of anoxic pO2 in the dead tissue. […]

[6] = Effect of biological oxidoreductants, pH and radiation on EPR stability and oxygen response; type: physicochemical
Excerpt: Effect of Biological Oxidoreductants, pH, Temperature, and Radiation Since our goal was to use the newly synthesized particulate material for biological applications, we thoroughly investigated the EPR stability (paramagnetism) as well as sensitivity of the EPR line-width to molecular oxygen in presence of a variety of biological oxidants, reductants, pH and radiation. […] We also observed that pH of the medium in the range 2-10 had no effect on their EPR sensitivity to oxygen. We also treated the particulates with 15.5 Gy of Cobalt-60 γ-ray irradiation for 10 min and found no effect on the EPR properties of the particulates.

[7] = Reduction of particle size using high frequency ultrasound; type: physicochemical; details: after 20 kHz then 269-1062.4 kHz sonication in water
Procedure: LiNc-BuO particles were crushed to a fine powder using a spatula. LiNc-BuO (20 mg) was suspended in […] of water without any additives (a total of 5 samples were made). The samples were then sonicated at 20 kHz frequency. 20 kHz sonolysis was conducted at a power setting of “2” for a total time of 5 minutes. All 5 samples were sonicated in this way. The samples were then allowed to sit overnight. The following day, the supernatant was extracted from all samples and placed in a measuring cylinder to make a 5 ml sample of suspended, small particles in aqueous solution. 1 ml of this stock was used to determine the particle size. The remaining 4 ml stock LiNc-BuO suspension was sonicated at various frequencies in the following way: 1 ml stock was placed in a test tube and suspended in the ultrasound bath which was operated at either 269, 354, 803 or 1062.4 kHz and a power of 60 W for a total time of 10 minutes. The 1 ml sample was then diluted to 2 ml using Milli-Q filtered water and the particle size determined. […] The procedure yielded particulates with mean size, 240 nm, with a min size, 72 nm.

[8] = particulates <2 μm, within 18 h
[9] = switching gas between nitrogen and room air

For `c1ccc2c(c1)[I+]c1ccccc1-2` [DPI, diphenyleneiodonium chloride], the “effect on oxygen consumption rate (OCR)” value [1] was “complete inhibition of oxygen consumption; also recorded: complete inhibition of the OCR; also recorded: completely blocked”.
With `CC1=CC(=O)c2ccccc2C1=O` [menadione] the “effect on intra- and extracellular pO2 and oxygen gradient” value ([2]; menadione 50 μM, cyanide 100 μM, listed as Menadione) was “did not affect significantly”, the “effect on oxygen consumption rate (OCR)” value [1] was “increased rates of oxygen consumption; also recorded: increased the OCRs” and the “increase in OCR” value ([1]; 50 μM) was “two-fold increase”. For the same compound, the “effect on OCR at lower concentrations” value ([1]; 10 and 50 μM, measured immediately) was “significant increase in the OCR”, the “effect on OCR at higher concentrations” value ([1]; 100 and 200 μM, measured immediately) was “decrease in the OCR; also recorded: significantly less compared to the control values” and the “increase of intra- and extracellular pO2” value [3] was 10-15%.
In the case of `C=C(C)[C@H]1Cc2c(ccc3c2O[C@@H]2COc4cc(OC)c(OC)cc4[C@@H]2C3=O)O1` [rotenone], the “effect on oxygen consumption rate (OCR)” value [1] is reported as “complete inhibition of oxygen consumption; also recorded: complete inhibition of the OCR; also recorded: completely inhibited the consumption of oxygen”.
In the case of “Lithium 5,9,14,18,23,27,32,36-octa-n-butoxy-2,3-naphthalocyanine [LiNc-BuO]”, the “cytotoxicity (light microscopy, Alamar Blue)” value [4] is reported as “no apparent cytotoxicity”, the “internalization of particulates in cells” value [4, 8] is reported as “almost all the cells in the 35 mm dish internalized the particulates” and the “cytotoxicity (light microscopy, Alamar Blue)” value [2] is reported as “no cytotoxicity”. The “viability of cells that internalized probe (Trypan blue exclusion)” value [2] was greater than 95%, the “mean spin density of particulates internalized in a single cell” value ([2]; in comparison with TAM standard) was 6×10^11 spins/cell and the “cells that internalized the particulates” value [2, 8] was roughly 95%. The “oxygen sensitivity of particulates recovered from dead tissue” value [5] was “not changed”, the “effect of gamma irradiation on EPR properties” value ([6]; 15.5 Gy Cobalt-60, 10 min) was “no effect” and the “effect of pH on EPR sensitivity to oxygen” value ([6]; pH 2-10) was “no effect”. The “effect of oxidants and reductants on EPR spectrum or oxygen response” value ([6]; superoxide, hydroxyl, H2O2, singlet oxygen, alkylperoxyl, nitric oxide, GSH, ascorbate, 30 min) was “did not show any effect”, the mean particle size [7] was 240 nm and the min particle size [7] was 72 nm. The “spin density relative to LiPc” value was “seven-fold higher”, the “anoxic peak-to-peak EPR line-width” value (0% oxygen, X-band, room temperature) was 210 mg and the “peak-to-peak EPR line-width in room air” value (20.9% oxygen (159 mmHg)) was 1550 mg. For the same compound, the “peak-to-peak EPR line-width in 100% oxygen” value (100% oxygen, 760 mmHg) was 6675 mg, the microwave power saturation (X-band) was “not saturable for up to 25 mW; also recorded: nonsatuarable up to 25 mW” and the “oxygen sensitivity (slope of line-width versus pO2)” value (linear in pO2 range measured (0-160 or 0-760 mmHg)) was 8.5 mG/mmHg. The pO2 resolution (physiological range) was ~0.2 mmHg and ~0.1 mmHg, the “peak-to-peak EPR line-width at 10% oxygen” value (suspended in PBS, 10% oxygen (pO2 76 mmHg)) was 852 mg and the “response time, deoxygenation” value [9] was roughly 20 s. For the same compound, the “response time, oxygenation” value [9] was roughly 1 s and the “effect of aqueous dispersion media on line-width and lineshape” value (water, PBS, cell culture media) was “not affected”.

Source: patent US8569482B2, “Nanoparticulate probe for in vivo monitoring of tissue oxygenation” (priority 2003, dated 2013)
